# Key:
# Rattus norvegicus = experiment: TP_TRANSPORTER: Northern blot in vivo, kidney of SD rat; type: functional, organism-based; details: Sprague Dawley
# [1] = molecular target: T1, Solute carrier organic anion transporter family member 1A1 (Rattus norvegicus, UniProt P46720); experiment: TP_TRANSPORTER: transport activity; type: functional
# T1 sequence (P46720 whole entry): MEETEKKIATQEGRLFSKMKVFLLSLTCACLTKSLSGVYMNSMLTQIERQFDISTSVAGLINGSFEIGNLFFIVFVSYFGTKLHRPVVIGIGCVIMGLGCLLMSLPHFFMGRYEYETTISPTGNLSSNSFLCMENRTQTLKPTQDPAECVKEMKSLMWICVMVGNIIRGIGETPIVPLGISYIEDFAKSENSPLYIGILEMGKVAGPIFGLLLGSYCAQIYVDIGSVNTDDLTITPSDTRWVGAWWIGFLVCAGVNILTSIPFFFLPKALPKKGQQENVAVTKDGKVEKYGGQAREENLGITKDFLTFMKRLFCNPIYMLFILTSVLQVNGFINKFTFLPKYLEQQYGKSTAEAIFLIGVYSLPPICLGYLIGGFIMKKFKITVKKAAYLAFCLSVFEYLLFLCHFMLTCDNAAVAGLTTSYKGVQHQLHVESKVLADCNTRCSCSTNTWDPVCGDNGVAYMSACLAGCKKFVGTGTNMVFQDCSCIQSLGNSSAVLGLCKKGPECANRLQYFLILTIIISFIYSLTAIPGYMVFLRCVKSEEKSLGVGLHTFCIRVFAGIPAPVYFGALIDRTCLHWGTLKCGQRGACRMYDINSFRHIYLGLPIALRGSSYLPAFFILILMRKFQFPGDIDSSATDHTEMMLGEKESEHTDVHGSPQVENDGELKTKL
SMILES,Activity (Rattus norvegicus),Activity [1]
C[C@]12CC[C@@H]3c4ccc(O)cc4CC[C@H]3[C@@H]1CC[C@@H]2O,is not a substrate [-],
CCCCC[C@H](O)/C=C/[C@@H]1[C@@H](C/C=C\CCCC(=O)O)[C@@H](O)C[C@H]1O [DINOPROST],,is not a substrate [-]

# Reference: ChEMBL document CHEMBL2074491, “Transport of drugs across the hepatic sinusoidal membrane: sinusoidal drug influx and efflux in the liver” (Semin Liver Dis, 2000)
